Data from patent US9290481B2, “Monocyclic heteroaryl cycloalkyldiamine derivatives” (NOVARTIS AG, priority 2012, dated 2016).

Legend:
OCl-Ly10 cells = experiment: B-cell lymphoma cell proliferation (WST-1 assay), OCl-Ly10; assay type: cell-based; conditions: 72 h, 3 days of incubation
Protocol: (§1) Cell proliferation was determined using the WST-1 assay (Roche, Mannheim, Germany), which measures the metabolic activity of the cells. Briefly, 5×10^5 TMD-8, OCl-Ly3, and OCl-Ly10 cells/well and 10×10^5 HBL-1 cells/well were seeded in triplicate in 96-well plates and were incubated with various concentrations of compounds to be tested for 3 days. The cell proliferation reagent WST-1 (10 μl/well) was added to the cells for 1-2 hours depending on the cell type which were cultured in 200 μl of medium. The absorbance was then measured with an enzyme-linked immunosorbent assay plate reader at a wavelength of 450 nm.

OCl-Ly3 cells = experiment: B-cell lymphoma cell proliferation (WST-1 assay), OCl-Ly3; assay type: cell-based; conditions: 4 days of incubation
Protocol: as §1, with “Briefly, 5×10^5 TMD-8, OCl-Ly3, and OCl-Ly10 cells/well and 10×10^5 HBL-1 cells/well were seeded in triplicate in 96-well plates and were incubated with various concentrations of compounds to be tested for 3 days.” left out

- GI50 (OCl-Ly10 cells): 25 nM
- GI50 (OCl-Ly3 cells): No inhibition
Compound: NC(=O)c1nnc(N[C@@H]2CCCC[C@@H]2N)nc1Nc1cccc2cc[nH]c12 [Example 1.1, 3-((1R,2S)-2-Amino-cyclohexylamino)-5-(1H-indol-7-ylamino)-[1,2,4]triazine-6-carboxylic acid amide]
